According to patent US20150297694A1, “CANCER DIAGNOSTIC AND THERAPEUTIC METHOD TARGETING MOLECULES EXPRESSED IN CANCER STEM CELLS” (NIIGATA UNIVERSITY, priority 2012, published 2015):

Tested on: PBMC of healthy volunteers (HLA-A*0201 or HLA-A*2601)
Test: IFN-γ production (ELISA) by DDX3X-derived peptide stimulation of peptide-induced CTL from PBMC
Format: cell-based, human
Conditions: peptide 20 μg/mL, 24 hours
Protocol: PBMC (1.5×10^7 cells) were inoculated in a 24-well plate in 1.5×10^6 cells/well (Day 0). Then, three types of DDX3X-derived peptides (final concentration 20 μg/mL each), and IL-7 (final concentration 10 ng/mL) were added to each well, and the cells were cultured at 37° C. in 5% CO2.
The cells were re-stimulated after 1 week (Day 7). For re-stimulation, the PBMC cryopreserved as antigen-presenting cells in Day 0 were thawed, and the three types of DDX3X-derived peptides (final concentration 20 μg/mL each) were added and conjugated at 37° C. for 2 hours after adjusting the cells to 3×10^6 cells/mL or less. This was followed by addition of a mitomycin C [Kyowa Hakko Kirin] solution to make the final concentration 50 μg/mL, and the cells were treated at 37° C. for 45 min. The cells were washed twice with AIM-V, and resuspended in medium to obtain an antigen-presenting cell suspension. After harvesting cells cultured for 1 week, the cells were inoculated in a 24-well plate in 1.2×10^6 cells/well, and the antigen-presenting cell suspension was inoculated with the same number of cells. Finally, IL-7 was added at 10 ng/ml, and the cells were cultured at 37° C. in 5% CO2. After 2 days (Day 9), half of the culture medium was gently removed from each well, and replaced with 40 U/mL of IL-2-containing medium for further culture. The half-volume replacement of the culture medium with 20 U/mL of IL-2-containing medium was repeated in the same fashion every other day (Day 11, Day 13). Re-stimulation was repeated in Day 14 and Day 21 using the same procedure. […]
Twenty-four hours after peptide stimulation, the culture supernatant was gently collected from each well. IFN-γ concentration in each culture supernatant was detected by ELISA, by using an ELISA reagent set (BD OptEIA ELISA set (human IFN-7)(trade name)) according to the manufacturer's protocol after modification. […] Measurements were made with a visible wavelength absorbance microplate reader (VERSAmax(trade name); Molecular Device).

## LEDFLYHEGY (listed as Homo sapiens) [DDX3X-10 mer]
Day 21, samples with A*2601
  samples showing IFN-γ production: two of the five
Day 28, samples with A*0201
  samples showing IFN-γ production: one of the six

## FVETKKGADSLEDFLYHEGY (listed as Homo sapiens) [DDX3X-20 mer]
Day 28, samples with A*2601
  samples showing IFN-γ production: one of the five
